Laboratory results published in US10807970B2 (priority 2016, dated 2020).

Each molecule was assayed against human σ1 receptor (Homo sapiens, UniProt Q99720) (assay: Human σ1 receptor radioligand assay ([3H](+)-pentazocine, transfected HEK-293 membranes)). Details: one class symbol for both Ki-σ1 (human σ1 receptor, A1) and Ki-μ (human μ-opioid receptor, A2).
Format: binding
Set-up: μ and σ1 dual binding: key to the marks not given beside the values
Method: Human σ1 Receptor Radioligand Assay
To investigate binding properties of test compounds to human σ1 receptor, transfected HEK-293 membranes and [^3H](+)-pentazocine (Perkin Elmer, NET-1056), as the radioligand, were used. The assay was carried out with 7 μg of membrane suspension, 5 nM of [^3H](+)-pentazocine in either absence or presence of either buffer or 10 μM Haloperidol for total and non-specific binding, respectively. Binding buffer contained Tris-HCl 50 mM at pH 8. Plates were incubated at 37° C. for 120 minutes. After the incubation period, the reaction mix was then transferred to MultiScreen HTS, FC plates (Millipore), filtered and plates were washed 3 times with ice-cold 10 mM Tris-HCL (pH7.4). Filters were dried and counted at approximately 40% efficiency in a MicroBeta scintillation counter (Perkin-Elmer) using EcoScint liquid scintillation cocktail

human σ1 receptor, sequence (Q99720 whole entry): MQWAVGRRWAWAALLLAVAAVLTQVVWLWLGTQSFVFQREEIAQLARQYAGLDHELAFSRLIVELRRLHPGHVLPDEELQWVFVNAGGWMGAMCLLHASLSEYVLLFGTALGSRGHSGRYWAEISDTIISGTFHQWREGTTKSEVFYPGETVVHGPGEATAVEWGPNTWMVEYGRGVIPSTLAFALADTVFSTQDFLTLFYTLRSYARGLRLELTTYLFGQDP

| SMILES | μ and σ1 dual binding |
| --- | --- |
| CCC1(N2CCN(Cc3ccccc3)CC2)CCOC(C)(C)C1 (centres unmarked) [Example 38, 1-benzyl-4-(4-ethyl-2,2-dimethyltetrahydro-2H-pyran-4-yl)piperazine] | ++ |
| CCC1(N2CCN(CCOC(C)C)CC2)CCOC(C)(C)C1 (centres unmarked) [Example 39, 1-(4-ethyl-2,2-dimethyltetrahydro-2H-pyran-4-yl)-4-(2-isopropoxyethyl)piperazine] | ++ |
| CC1(C)CC(C(=O)c2ccccn2)(N2CCN(Cc3ccccn3)CC2)CCO1 (centres unmarked) [Example 50, (2,2-dimethyl-4-(4-(pyridin-2-ylmethyl)piperazin-1-yl)tetrahydro-2H-pyran-4-yl)(pyridin-2-yl)methanone] | ++ |
| CC1(C)CC(C)(N2CCN(CCc3ccccc3)CC2)CCO1 (centres unmarked) [Example 53, 1-phenethyl-4-(2,2,4-trimethyltetrahydro-2H-pyran-4-yl)piperazine] | ++ |
| CC1(C)CC(C(=O)c2ccccn2)(N2CCN(CCc3ncccc3F)CC2)CCO1 (centres unmarked) [Example 55, (4-(4-(2-(3-fluoropyridin-2-yl)ethyl)piperazin-1-yl)-2,2-dimethyltetrahydro-2H-pyran-4-yl)(pyridin-2-yl)methanone] | ++ |
| CC(c1ccc(F)cc1)N1CCN(C2(C(=O)c3ccccn3)CCOC(C)(C)C2)CC1 (centres unmarked) [Example 63, (4-(4-(1-(4-fluorophenyl)ethyl)piperazin-1-yl)-2,2-dimethyltetrahydro-2H-pyran-4-yl)(pyridin-2-yl)methanone] | ++ |

Same assay, conditions: one class symbol for both Ki-σ1 (human σ1 receptor, A1) and Ki-μ (human μ-opioid receptor, A2); read-out: μ and σ1 dual binding

| SMILES | Ki |
| --- | --- |
| C=CC1(N2CCN(CCc3ccccc3)CC2)CCOC(C)(C)C1 (centres unmarked) [Example 45, 1-(2,2-dimethyl-4-vinyltetrahydro-2H-pyran-4-yl)-4-phenethylpiperazine] | > 500 nM |
| CC1(C)CC(CCO)(N2CCN(CCc3ccccc3)CC2)CCO1 (centres unmarked) [Example 48, 2-(2,2-dimethyl-4-(4-phenethylpiperazin-1-yl)tetrahydro-2H-pyran-4-yl)ethanol] | > 500 nM |
| CCC1(N2CCN(CCc3ccccc3)CC2)CCOC(C)(C)C1 (centres unmarked) [Example 52, 1-(4-ethyl-2,2-dimethyltetrahydro-2H-pyran-4-yl)-4-phenethylpiperazine] | < 500 nM |
| CC1(C)CC(C(=O)c2ccccn2)(N2CCN(CCc3ncccc3Cl)CC2)CCO1 (centres unmarked) [Example 56, (4-(4-(2-(3-chloropyridin-2-yl)ethyl)piperazin-1-yl)-2,2-dimethyltetrahydro-2H-pyran-4-yl)(pyridin-2-yl)methanone] | > 500 nM |
| CC1(C)CC(C(=O)c2ccccn2)(N2CCN(Cc3cccnc3)CC2)CCO1 (centres unmarked) [Example 58, (2,2-dimethyl-4-(4-(pyridin-3-ylmethyl)piperazin-1-yl)tetrahydro-2H-pyran-4-yl)(pyridin-2-yl)methanone] | > 500 nM |
| CC1(C)CC(C(=O)c2ccccn2)(N2CCN(Cc3ccncc3)CC2)CCO1 (centres unmarked) [Example 59, (2,2-dimethyl-4-(4-(pyridin-4-ylmethyl)piperazin-1-yl)tetrahydro-2H-pyran-4-yl)(pyridin-2-yl)methanone] | > 500 nM |
| CC(C)OCCN1CCN(C2(C(=O)c3ccccn3)CCOC(C)(C)C2)CC1 (centres unmarked) [Example 65, (4-(4-(2-isopropoxyethyl)piperazin-1-yl)-2,2-dimethyltetrahydro-2H-pyran-4-yl)(pyridin-2-yl)methanone] | < 500 nM |
| CCOCCN1CCN(C2(C(=O)c3ccccn3)CCOC(C)(C)C2)CC1 (centres unmarked) [Example 67, (4-(4-(2-ethoxyethyl)piperazin-1-yl)-2,2-dimethyltetrahydro-2H-pyran-4-yl)(pyridin-2-yl)methanone] | > 500 nM |
| COCCN1CCN(C2(C(=O)c3ccccn3)CCOC(C)(C)C2)CC1 (centres unmarked) [Example 68, (4-(4-(2-methoxyethyl)piperazin-1-yl)-2,2-dimethyltetrahydro-2H-pyran-4-yl)(pyridin-2-yl)methanone] | > 500 nM |

Same assay, conditions: μ and σ1 dual binding, one class symbol for both Ki-σ1 (human σ1 receptor, A1) and Ki-μ (human μ-opioid receptor, A2)

| SMILES | Ki |
| --- | --- |
| CC1(C)CC(Cc2ccccc2)(N2CCN(Cc3ccccc3)CC2)CCO1 (centres unmarked) [Example 40, 1-benzyl-4-(4-benzyl-2,2-dimethyltetrahydro-2H-pyran-4-yl)piperazine] | < 100 nM |
| CCCC1(N2CCN(CCc3ccccc3)CC2)CCOC(C)(C)C1 (centres unmarked) [Example 41, 1-(2,2-dimethyl-4-propyltetrahydro-2H-pyran-4-yl)-4-phenethylpiperazine] | < 500 nM |
| CC(C)C1(N2CCN(CCc3ccccc3)CC2)CCOC(C)(C)C1 (centres unmarked) [Example 42, 1-(4-isopropyl-2,2-dimethyltetrahydro-2H-pyran-4-yl)-4-phenethylpiperazine] | < 100 nM |
| CC(C)C1(N2CCN(Cc3ccccc3)CC2)CCOC(C)(C)C1 (centres unmarked) [Example 43, 1-benzyl-4-(4-isopropyl-2,2-dimethyltetrahydro-2H-pyran-4-yl)piperazine] | < 500 nM |
| CC1(C)CC(C2CC2)(N2CCN(CCc3ccccc3)CC2)CCO1 (centres unmarked) [Example 44, 1-(4-cyclopropyl-2,2-dimethyltetrahydro-2H-pyran-4-yl)-4-phenethylpiperazine] | < 500 nM |
| COCCC1(N2CCN(CCc3ccccc3)CC2)CCOC(C)(C)C1 (centres unmarked) [Example 49, 1-(4-(2-Methoxyethyl)-2,2-dimethyltetrahydro-2H-pyran-4-yl)-4-phenethylpiperazine] | < 500 nM |
| CC(C)CN1CCN(C2(C(=O)c3ccccn3)CCOC3(CCCC3)C2)CC1 (centres unmarked) [Example 51, (9-(4-isobutylpiperazin-1-yl)-6-oxaspiro[4.5]decan-9-yl)(pyridin-2-yl)methanone] | < 500 nM |
| CC1(C)CC(C(=O)c2ccccn2)(N2CCN(CCc3ccccc3)CC2)CCO1 (centres unmarked) [Example 54, (2,2-dimethyl-4-(4-phenethylpiperazin-1-yl)tetrahydro-2H-pyran-4-yl)(pyridin-2-yl)methanone] | < 500 nM |
| CC1(C)CC(C(=O)c2ccccn2)(N2CCN(CCc3ccncc3Cl)CC2)CCO1 (centres unmarked) [Example 57, (4-(4-(2-(3-chloropyridin-4-yl)ethyl)piperazin-1-yl)-2,2-dimethyltetrahydro-2H-pyran-4-yl)(pyridin-2-yl)methanone] | < 500 nM |
| CC1(C)CC(C(=O)c2ccccn2)(N2CCN(Cc3ccc(F)cc3)CC2)CCO1 (centres unmarked) [Example 60, (4-(4-(4-fluorobenzyl)piperazin-1-yl)-2,2-dimethyltetrahydro-2H-pyran-4-yl)(pyridin-2-yl)methanone] | < 500 nM |
| CC1(C)CC(C(=O)c2ccccn2)(N2CCN(Cc3cccc(F)c3)CC2)CCO1 (centres unmarked) [Example 61, (4-(4-(3-fluorobenzyl)piperazin-1-yl)-2,2-dimethyltetrahydro-2H-pyran-4-yl)(pyridin-2-yl)methanone] | < 500 nM |
| CC(c1ccccc1)N1CCN(C2(C(=O)c3ccccn3)CCOC(C)(C)C2)CC1 (centres unmarked) [Example 62, (2,2-dimethyl-4-(4-(1-phenylethyl)piperazin-1-yl)tetrahydro-2H-pyran-4-yl)(pyridin-2-yl)methanone] | < 500 nM |
| CC(C)CCN1CCN(C2(C(=O)c3ccccn3)CCOC(C)(C)C2)CC1 (centres unmarked) [Example 64, (4-(4-isopentylpiperazin-1-yl)-2,2-dimethyltetrahydro-2H-pyran-4-yl)(pyridin-2-yl)methanone] | < 500 nM |
| CC(C)COCCN1CCN(C2(C(=O)c3ccccn3)CCOC(C)(C)C2)CC1 (centres unmarked) [Example 66, (4-(4-(2-isobutoxyethyl)piperazin-1-yl)-2,2-dimethyltetrahydro-2H-pyran-4-yl)(pyridin-2-yl)methanone] | < 500 nM |
